Laboratory results: patent US9850283B2, “Macrocyclic inhibitors of the PD-1/PD-L1 and CD80(B7-1)/PD-L1 protein/protein interactions” (BRISTOL-MYERS SQUIBB COMPANY, priority 2013, dated 2017)
Read-outs that look alike come from different tables or passages of the source. Starred links: 1 amine or outer side, 2 acyl side, 3 side chain; linkers in the order of their positions; H or OH if unused. Positions of bridges follow the written chain, without caps; N, C: chain ends. Non-standard residues stand in square brackets, D forms with d. Residues, ends and D or L forms follow the SMILES beside them. ξ: configuration not given here. Phe(3,4,5-F3) = N[C@@H](Cc1cc(F)c(F)c(F)c1)C(=O)O; Phe(4-CH2NH2) = NCc1ccc(C[C@H](N)C(=O)O)cc1; Phe(3-F) = N[C@@H](Cc1cccc(F)c1)C(=O)O; d(cisHyp) = O=C(O)[C@H]1C[C@@H](O)CN1; Bta = N[C@@H](Cc1csc2ccccc12)C(=O)O; Hyp = O=C(O)[C@@H]1C[C@@H](O)CN1; NMeF = CN[C@@H](Cc1ccccc1)C(=O)O; X4 = O=C([C@H]1COCCN1[*:1])[*:2]; dNMeE = CN[C@H](CCC(=O)O)C(=O)O; NMeNle = CCCC[C@H](NC)C(=O)O; NMeA = CN[C@@H](C)C(=O)O; Orn = NCCC[C@H](N)C(=O)O; Dab = NCC[C@H](N)C(=O)O; ξC = NC(CS)C(=O)O; Sar = CNCC(=O)O

Assays:
Human PD-L1/PD-1 = target: T1, Human PD-L1/PD-1 (Homo sapiens, UniProt Q9NZQ7); assay: HTRF PD-1-Ig/PD-L1-His binding assay (human PD-L1)
T1 construct: made in house; host or cells: HEK293T
T1 sequence (Q9NZQ7 with tags, fused parts or gaps): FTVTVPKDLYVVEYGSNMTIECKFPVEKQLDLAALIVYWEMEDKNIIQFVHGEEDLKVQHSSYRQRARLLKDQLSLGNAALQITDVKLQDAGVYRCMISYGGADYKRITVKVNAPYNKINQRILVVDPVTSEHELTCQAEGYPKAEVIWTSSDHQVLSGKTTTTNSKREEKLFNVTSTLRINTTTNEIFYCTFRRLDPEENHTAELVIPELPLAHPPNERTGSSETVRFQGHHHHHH
In short: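 The time-resolved fluorescence signal comes from Eu-cryptate anti-Ig (1 nM) and APC anti-His (20 nM) antibodies bound to a PD-1-Ig/PD-L1-His complex. Both partners lack transmembrane regions.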

[1] = target: T2, LK35.2-hPD-L1 cells / PE-labeled PD-1-Ig (Homo sapiens, UniProt Q9NZQ7); assay: LK35.2-hPD-L1 cell binding high-content screening assay; format: cell-based
T2 construct: expressed in transfected cells; host or cells: LK35.2 mouse B cell line
T2 sequence (Q9NZQ7 19-290): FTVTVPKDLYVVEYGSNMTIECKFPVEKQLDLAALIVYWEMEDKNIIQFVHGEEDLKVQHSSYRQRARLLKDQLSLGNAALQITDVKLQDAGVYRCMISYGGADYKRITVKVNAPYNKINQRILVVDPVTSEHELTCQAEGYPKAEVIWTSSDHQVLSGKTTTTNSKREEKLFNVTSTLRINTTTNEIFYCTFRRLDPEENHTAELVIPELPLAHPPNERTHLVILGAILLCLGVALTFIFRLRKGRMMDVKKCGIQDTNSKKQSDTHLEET
In short: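 Compound effect on PD-1/PD-L1 binding is measured by imaging cell-associated phycoerythrin signal. Human PD-1-Ig (PE on Ig tag, 1 nM final) is applied with compound to a murine B cell line overexpressing human PD-L1 for 1 h at 37 °C in serum-containing RPMI.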

[2] = cluster symbol, read-out: HTRF IC50 cluster
[3] = cell binding assay, cell line not given, cluster symbol, read-out: CBA IC50 cluster

Row | IC50 (Human PD-L1/PD-1; numeric value, read-out: HTRF IC50 values) | IC50 ([1]; cell binding assay, cell line not given, numeric value, read-out: CBA IC50 values) | IC50 (Human PD-L1/PD-1; [2]) | IC50 [1, 3] | IC50 ([1]; cluster symbol, cell line of CBA not given (LK35.2-hPD-L1 or 293T-hPD-L1), read-out: CBA IC50 cluster) | Structure (SMILES)
1 | 8.11 nM | 5.97 nM | – | – | – | CCCC[C@H]1C(=O)N(C)[C@@H](CCCC)C(=O)N[C@@H](CCCNC(=N)N)C(=O)NC(C(=O)NCC(N)=O)CSCC(=O)N[C@@H](Cc2ccc(O)cc2)C(=O)N(C)[C@@H](C)C(=O)N[C@@H](CC(N)=O)C(=O)N2C[C@H](O)C[C@H]2C(=O)N[C@@H](Cc2cnc[nH]2)C(=O)N[C@@H](CC(C)C)C(=O)N2C[C@H](O)C[C@H]2C(=O)N[C@@H](Cc2c[nH]c3ccccc23)C(=O)N[C@@H](CO)C(=O)N[C@@H](Cc2c[nH]c3ccccc23)C(=O)N1C (some centres unmarked) [Example 9013] ({CH2CO}-Y[NMeA]N[Hyp]HL[Hyp]WSW[NMeNle][NMeNle]R[ξC]G-NH2; thioether N-14)
2 | – | – | 0.385 to 6.74 nM | 0.158 to 4.71 nM | – | CCCC[C@H]1C(=O)N2C[C@H](O)C[C@@H]2C(=O)N[C@@H](CC(=O)O)C(=O)N[C@@H](C(C)C)C(=O)N(C)[C@@H](Cc2ccccc2)C(=O)N[C@@H](CCCN)C(=O)N2CCOC[C@@H]2C(=O)N[C@@H](Cc2c[nH]c3ccccc23)C(=O)N[C@@H](Cc2ccc(O)cc2)C(=O)N[C@@H](CCCN)C(=O)N[C@H](C(=O)NCC(N)=O)CSCC(=O)N[C@@H](Cc2cc(F)c(F)c(F)c2)C(=O)N(C)[C@@H](Cc2ccccc2)C(=O)N1C [Example 3598] ({CH2CO}-[Phe(3,4,5-F3)][NMeF][NMeNle][d(cisHyp)]DV[NMeF][Orn][X4]WY[Orn]CG-NH2; thioether N-13)
3 | – | – | 6.76 to 30.3 nM | – | 0.158 to 4.71 nM | CCCC[C@H]1C(=O)N(C)CC(=O)N[C@@H](CC(=O)O)C(=O)N[C@@H](C(C)C)C(=O)N(C)[C@@H](Cc2ccccc2)C(=O)N[C@@H](Cc2ccc(CN)cc2)C(=O)N(C)CC(=O)N[C@@H](Cc2c[nH]c3ccccc23)C(=O)N[C@@H](Cc2ccc(O)cc2)C(=O)N[C@@H](CC(C)C)C(=O)N[C@H](C(=O)NCC(N)=O)CSCC(=O)N[C@@H](Cc2cccc(F)c2)C(=O)N(C)[C@@H](Cc2ccccc2)C(=O)N1C [Example 3124] ({CH2CO}-[Phe(3-F)][NMeF][NMeNle][Sar]DV[NMeF][Phe(4-CH2NH2)][Sar]WYLCG-NH2; thioether N-13)
4 | – | – | 0.385 to 6.74 nM | 0.158 to 4.71 nM | – | CCCC[C@H]1C(=O)N(C)[C@@H](CCCC)C(=O)N[C@@H](CO)C(=O)NC(C(=O)NCC(N)=O)CSCC(=O)N[C@@H](Cc2ccc(O)cc2)C(=O)N(C)[C@@H](C)C(=O)N[C@@H](CC(N)=O)C(=O)N2CCC[C@H]2C(=O)N[C@@H](Cc2cnc[nH]2)C(=O)N[C@@H](CC(C)C)C(=O)N2CCC[C@H]2C(=O)N[C@@H](Cc2c[nH]c3ccccc23)C(=O)N[C@@H](CO)C(=O)N[C@@H](Cc2csc3ccccc23)C(=O)N1C (some centres unmarked) [Example 9027] ({CH2CO}-Y[NMeA]NPHLPWS[Bta][NMeNle][NMeNle]S[ξC]G-NH2; thioether N-14)
5 | – | – | > 30.5 nM | > 74.3 nM | – | CCCC[C@H]1C(=O)N(C)CC(=O)N[C@@H](CC(=O)O)C(=O)N[C@@H](C(C)C)C(=O)N(C)[C@@H](Cc2ccccc2)C(=O)N[C@@H](Cc2ccc(O)cc2)C(=O)N(C)CC(=O)N[C@@H](Cc2ccc(CN)cc2)C(=O)N[C@@H](Cc2ccc(O)cc2)C(=O)N[C@@H](CC(C)C)C(=O)N[C@H](C(=O)NCC(N)=O)CSCC(=O)N[C@@H](Cc2ccccc2)C(=O)N(C)[C@@H](Cc2ccccc2)C(=O)N1C [Example 3513] ({CH2CO}-F[NMeF][NMeNle][Sar]DV[NMeF]Y[Sar][Phe(4-CH2NH2)]YLCG-NH2; thioether N-13)
6 | – | – | 6.76 to 30.3 nM | 0.158 to 4.71 nM | – | CCCC[C@H]1C(=O)N2C[C@H](O)C[C@@H]2C(=O)N[C@@H](CC(N)=O)C(=O)N[C@@H](C(C)C)C(=O)N(C)[C@@H](Cc2ccccc2)C(=O)N[C@@H](Cc2ccc(O)cc2)C(=O)N(C)[C@H](CCC(=O)O)C(=O)N[C@@H](Cc2c[nH]c3ccccc23)C(=O)N[C@@H](Cc2ccc(O)cc2)C(=O)N[C@@H](CCCCN)C(=O)N[C@H](C(=O)NCC(N)=O)CSCC(=O)N[C@@H](Cc2cc(F)c(F)c(F)c2)C(=O)N(C)[C@@H](Cc2ccccc2)C(=O)N1C [Example 3596] ({CH2CO}-[Phe(3,4,5-F3)][NMeF][NMeNle][d(cisHyp)]NV[NMeF]Y[dNMeE]WYKCG-NH2; thioether N-13)
7 | – | – | 6.76 to 30.3 nM | 4.78 to 72.9 nM | – | CCCC[C@H]1C(=O)N(C)[C@@H](CCCC)C(=O)N[C@@H](CCC(=O)O)C(=O)N[C@H](C(=O)NCC(N)=O)CSCC(=O)N[C@@H](Cc2ccc(O)cc2)C(=O)N(C)[C@@H](C)C(=O)N[C@@H](CCN)C(=O)N2CCC[C@H]2C(=O)N[C@@H](Cc2c[nH]cn2)C(=O)N[C@@H](CCC(=O)O)C(=O)N2C[C@H](O)C[C@H]2C(=O)N[C@@H](Cc2c[nH]c3ccccc23)C(=O)N[C@@H](CO)C(=O)N[C@@H](Cc2c[nH]c3ccccc23)C(=O)N1C [Example 5111] ({CH2CO}-Y[NMeA][Dab]PHE[Hyp]WSW[NMeNle][NMeNle]ECG-NH2; thioether N-14)
